“And” between values parts separate entries of the source, which are not always exact repeats. Identical values can stand only once.
Columns and labels:
[1] = system: Pseudomonas aeruginosa strain PaO; assay: Acute lung injury model, compound co-administered with bacteria; type: in vivo, male BalB/c mice
Experimental: Cohorts of male BalB/c mice (n=5/group) were infected intranasally with either a low (1-2×10^6 CFU) or a high (1-2×10^7 CFU) inoculum of Pseudomonas aeruginosa strain PaO, in combination with saline or multiple dose levels ([…], corresponding to 10, 25 and 50 mg/kg, respectively) of glycomimetic compound (I) or compound A. The bacteria were coadministered with glycomimetic compound (I) or compound A directly into the lungs of each mouse by intratracheal (i.t.) injection via the oropharynx using a 24-gauge feeding needle (total volume of 0.05 mL).
The animals were observed daily beginning 24 hours post infection and cumulative clinical (disease) scores were determined for each mouse (FIGS. 4 and 6). Parameters assessed were: (a) for appearance (smooth→bristly); (b) body temperature (normal→cold); (c) movement (moving→prostate); and (d) weight loss. Clinical scoring ranged from 0 (normal, uninfected appearance) to 10 (severely compromised).
Animals were observed daily for morbidity/mortality and day of death recorded. Kaplan-Meier analysis was used to estimate survival function from life-span data and statistical values derived from a log rank test.

[2] = system: Pseudomonas aeruginosa PAO1 strain; assay: Acute P. aeruginosa-induced infection in mouse, monotherapy at different inoculation times; type: in vivo, male C57BL6/J mice
Experimental: (§1) Pseudomonas aeruginosa PAO1 strain is a sequenced, well-characterized strain used as reference strain. Bacteria were grown overnight at 37° C. in Lysogeny Broth Lennox (LB) (BD Europe, Le pont de Claix, France) under orbital shaking (300 rpm) from frozen stock. A secondary culture was performed during 2 hours and before harvesting the bacteria by centrifugation (2000 g, 5 min), and two washings with sterile phosphate-buffered saline (PBS). Turbidity was then approximated by measurement of optical density at A600 (Ultrospec 10 Cell Density Meter, General Electric, Fairfield, Conn.) and verified by serial dilution and plating on LB agar Plates.
(§2) Vehicle was phosphate buffered saline, and test solutions are Glycomimetic Compound (I) 40 mM in PBS, and Compound A 40 mM in PBS. Test articles were provided by GlycoMimetics and stored at −20° C. Tobramycin (1 g) was provided by Laboratoire EREMPHARMA (25 rue Greffulhe—92300 Levallois) and stored at (+4° C.).
(§3) Male C57BL6/J mice (8 weeks old) purchased from Janvier Labs (Route du Genest, 53940 Le Genest-Saint-Isle) were housed a pathogen-free unit of the Lille University Animal Care Facility and allowed food and water ad lib.
(§4) Mice were anesthetized briefly with inhaled sevoflurane (Sevorane™, Abbott, Queensborough, UK), allowing maintenance of spontaneous breathing after which 50 μL of the bacterial solution were administered intranasally representing a total of 1.10^6 CFU/mouse (except for tobramycin study conducted with lethal inoculate of […]). Control mice receive 50 μL of PBS. All mice were sacrificed at 24 h (except for survival studies, mice were monitored on weight and clinical score 96 h post bacterial infection). Glycomimetic Compound (I) or Compound A were administered IN with the inoculum or post-infection (see FIG. 8 and FIG. 12). In appropriate groups, mice were treated 24 h after infection with 12 mg/kg tobramycin administered intraperitoneally.
(§5) For each group, treatment effect was measured with the disease score and daily mortality rate post challenge. The evolution of the disease score assessing the clinical appearance of the animals was evaluated on 4 items scored from 0 to 10 summarized in Table 1 (body temperature, appearance of the bristle, behavior and weight loss; 0: healthy mice, 10 moribund mice). All disease score assessments were performed by two experimenters throughout the study.
(§6) Statistical analysis was performed using Prism 5 software (Graph-Pad Software, San Diego Calif.). Values are expressed as mean±SEM. Comparison groups were analysed with the nonparametric Mann-Whitney test. Survival curves were analysed using Log-rank (Mantel-Cox) test. *p<0.05; ** p<0.01; *** p<0.001 Results are mean+/−Standard error.
Mice, 8 weeks old C57Bl/6J male, received intranasally 1.10^7 CFU of PaO1 and Glycomimetic Compound (I) or Compound A at different time points, as described in FIG. 8.
We analyzed weight loss, clinical disease score and mortality. Fourteen independent cohorts of 5 mice each were tested. Each cohort included an equal representation of testing conditions. All stage 1 cohorts were tested over 4 days. At the conclusion of Stage 1, there was a total of 10 mice for each of the above 7 treatment groups.

PA-IIL = target: T1, PA-IIL (Pseudomonas aeruginosa, UniProt Q9HYN5); assay: Assay for PA-IIL antagonist activity (competition with fucose-PAA-biotin/streptavidin-HRP on coated plate); type: binding
T1 construct: Dr. Wimmerova, Masaryk University, Brno, Czech Republic (academic supplier)
T1 sequence (Q9HYN5 entry or part of it): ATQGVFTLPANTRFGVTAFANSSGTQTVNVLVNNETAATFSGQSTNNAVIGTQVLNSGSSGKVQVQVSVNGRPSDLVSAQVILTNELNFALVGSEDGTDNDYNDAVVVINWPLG
Experimental: (§7) Wells of a microtiter plate (plate 1) are coated with PA-IIL (Dr. Wimmerova, Masaryk University, Brno, Czech Republic) by incubation for 2 hrs at 37° C. The wells are then blocked for 2 hrs by the addition of 1% bovine serum albumin (BSA) diluted in TBS-Ca (50 mM TrisHCl, 150 mM NaCl, 2 mM CaCl2 pH 7.4) mixed 1:1 v/v with Stabilcoat (Surmodics, Eden Prairie, Minn.). In a second low-binding round-bottom microtiter plate (plate 2), test antagonists are serial diluted in 1% BSA in TBS-Ca/Stabilcoat (60 μl/well). Preformed conjugates of fucose-PAA-biotin (GlycoTech Corp, Gaithersburg, Md.) mixed with streptavidin-HRP (KPL Labs, Gaithersburg, Md.) are added to each well of plate 2 (60 μl/well of 2 μg/ml). Plate 1 is then washed with TBS-Ca and 100 μl/well are transferred from plate 2 to plate 1. After incubation at room temperature for 2 hrs, plate 1 is washed and 100 μl of TMB reagent (KPL Labs, Gaithersburg, Md.) is added to each well. After incubation for 5 minutes at room temperature, the reaction is stopped by adding 100 μl/well of 1M H3PO4 and the absorbance of light at 450 nm is determined by a microtiter plate reader. Absorbance is plotted as a function of antagonist concentration and the concentration at which 50% maximal absorbance (IC50) is obtained is determined from the plot.

[3] = system: Pseudomonas aeruginosa PAO1 strain; assay: Acute P. aeruginosa-induced infection in mouse, association with tobramycin; type: in vivo, male C57BL6/J mice
Experimental: as §1, §2, §3, §4, §5, §6
Mice, 8 weeks old C57Bl/6J male, received intranasally 2.10^7 CFU of PAO1 and Glycomimetic Compound (I) or Compound A at different time points with or without an intraperitoneal injection of tobramycin 12 mg/kg (FIG. 12).

Pseudomonas aeruginosa = assay: Acute lung injury model, treatment with tobramycin; type: in vivo, mice
Experimental: Mice were co-administered 2×10^7 CFU Pseudomonas aeruginosa with or without compound A or glycomimetic compound (I) in combination with 12 mg/kg tobramycin. The tobramycin was administered intraperitoneally 6 hours after bacterial challenge.

[4] = Uninfected mice treated with compound (non-specific toxicity control); type: in vivo; conditions: 40 mM
PA-IL = target: T2, PA-IL (Pseudomonas aeruginosa, UniProt Q05097); assay: Assay for PA-IL antagonist activity (competition with α-galactose-PAA-biotin/streptavidin-HRP on coated plate); type: binding
T2 construct: purchased Sigma-Aldrich, St. Louis, Mo
T2 sequence (Q05097 whole entry): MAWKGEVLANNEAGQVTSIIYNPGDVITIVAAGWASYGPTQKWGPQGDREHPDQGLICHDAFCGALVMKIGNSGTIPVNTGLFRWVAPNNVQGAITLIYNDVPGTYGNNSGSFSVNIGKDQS
Experimental: as §7, with “PA-IL (Sigma-Aldrich, St. Louis, Mo.)” for “PA-IIL (Dr. Wimmerova, Masaryk University, Brno, Czech Republic)”, “CaCl2)” for “CaCl2”, “α-galactose-PAA-biotin” for “fucose-PAA-biotin”

[5] = 2.10^7 CFU PAO1, agent alone, H4 administration

Compound | survival ([1]; high inoculum, co-administered 20 mM, at 96 hr) | survival ([1]; high inoculum, co-administered 40 mM, at 96 hr) | survival ([1]; low inoculum 2×10^6 CFU, co-administered 40 mM compound, i.t.) | survival ([2]; 1.10^7 CFU PaO1, compound administered after 4 hours of infection) | survival ([2]; 1.10^7 CFU PaO1, compound administered after 6 hours of infection) | survival ([2]; 1.10^7 CFU PaO1, compound administered after one hour of infection) | survival ([2]; 1.10^7 CFU PaO1, compound administered with the bacteria) | effect on weight and score disease ([2]; monotherapy, FIGS. 10 and 11) | IC50 (PA-IIL) | survival [3, 5] | survival ([3]; 2.10^7 CFU PAO1, association with tobramycin 12 mg/kg i.p., H4 administration) | survival ([3]; 2.10^7 CFU PAO1, association with tobramycin 12 mg/kg i.p., at 6 h) | score disease ([3]; with tobramycin, at 4 hours) | survival (Pseudomonas aeruginosa; 8 mM in combination with 12 mg/kg tobramycin) | survival (Pseudomonas aeruginosa; 20 mM in combination with 12 mg/kg tobramycin) | survival (Pseudomonas aeruginosa; 40 mM in combination with 12 mg/kg tobramycin) | survival benefit (Pseudomonas aeruginosa; 8, 20 and 40 mM co-administered with bacteria, plus 12 mg/kg tobramycin i.p. 6 hours after challenge) | morbidity or mortality [4] | IC50 (PA-IL) | survival ([3]; 2.10^7 CFU PAO1, agent alone, at 6 h)
CC1CCC[C@@H](O[C@@H]2OC(CO)[C@H](O)C(O[C@H]3OC(CO)[C@H](O)C(O)C3O)C2O)C1OC1O[C@@H](C)C(O)C(O)[C@@H]1O (stereo partly drawn) [Glycomimetic Compound (I)] | 60% | 100% | 100% | 40% | 25% and 20% | 54.5% | 90% | superior to Compound A | 0.44 µM | 30% | 90% | 50% | lower score | 40% | 100% | 100% | significantly increased | no morbidity or mortality was observed | 7.2 µM | 
NC[C@H]1O[C@H](O[C@H]2[C@H](O)[C@@H](O[C@H]3O[C@H](CO)[C@@H](O)[C@H](N)[C@H]3O)[C@H](N)C[C@@H]2N)[C@H](N)C[C@@H]1O [tobramycin, reference compound] |  |  |  |  |  |  |  |  |  | 70% |  |  |  |  |  |  |  |  |  | 10%
